Source: publication PMC4389225, “Triaminopyrimidine is a fast-killing and long-acting antimalarial clinical candidate” (Nature Communications, 2015)
Converted amounts (≈) assume the structure as drawn.

Tests used:
[1] = Plasma protein binding, guinea pig
[2] = Plasma protein binding, rat
Dd2 = assay: SYBR green growth assay, Dd2 (parental); type: cell-based, P. falciparum; conditions: Plasmodium falciparum, DD2, Dd2 parental; mean ± SD, Supplementary Table 13
Description: To eliminate overlapping mode of action with known targets, cross-resistance testing of representative TAPs against drug-resistant lines with well-characterized mutations in Pf dihydroorotate dehydrogenase, Pf heat-shock protein 90, Pf chloroquine resistance transporter[25] or Pf cytochrome b reduction site[26] was performed. […] Assays were carried out in 384-well format with three technical replicates within an assay day and biological replicates carried out on three different assay days to assign a final EC50.
A representative TAP (compound 6) was tested for its activity against a panel of P. falciparum strains known to harbour mutations conferring resistance to antimalarial agents under development. Artesunate and amodiaquine were included as additional control […]
Values are the means ± standard deviation derived from three independent assays performed

Dd2-6R F2 D8 = assay: SYBR green growth assay, Dd2-6R F2 D8; conditions: Plasmodium falciparum
Description: The drug was then washed off and the parasites were allowed to recover in normal growth media.

PfATP4 Cpd 2 = assay: [3H]-hypoxanthine incorporation assay, PfATP4 Cpd 2 resistant; type: cell-based; conditions: Plasmodium falciparum
Description: (§1) Supplementary Table 3: Compound 9 and 12 retain their activity against Pf strains harbouring mutations to novel antimalarial agents in clinical development. Compound 9 and 12 were tested for their antiplasmodial activity against a panel of Pf strains known to harbour mutations conferring resistance to novel agents under clinical development. Parasite growth inhibition is measured using the [3H]-hypoxanthine incorporation assay. IC50s are established for each strain (n ≥2) and compared to the IC50 of Dd2 (standard pan-resistant […]

Dd2 DHODH DSM265 = assay: [3H]-hypoxanthine incorporation assay, Dd2 DHODH DSM265 resistant; type: cell-based; conditions: Plasmodium falciparum
Description: as §1

Dd2 PfATP4 NITD609 = assay: [3H]-hypoxanthine incorporation assay, Dd2 PfATP4 NITD609 resistant; type: cell-based; conditions: Plasmodium falciparum
Description: as §1

in vitro = in vitro ADME; conditions: pH 7.4, Michaelis-Menten
Description: Supplementary Note 3: Metabolism of 12 in the presence of mouse (MLM) and human […]
The kinetics of metabolism of compound 12 to form the N-demethylated metabolite, 9, was studied by incubating 12 with HLM or MLM. Compound 12 was incubated with 1 mg/mL of pooled liver microsomes at four different compound concentrations (5, 10, 20 and 30 μM) in 166 µL of buffer containing 100 mM phosphate buffer, pH 7.4 and 1 mM NADPH, at 37°C.
Aliquots of 20 µL of incubation mix were quenched with 4 volumes of ice-cold acetonitrile at different time points, i.e., 0, 5, 10, 20 and 30 min in a 96 well microtitre plate. The quenched plate was centrifuged at 4000 rpm for 15 min and 20 µL of the supernatant was diluted to 200 µL with 50% acetonitrile in water. Depletion of 12 and formation of 9 was analysed by LC-MS/MS. Concentrations of 12 and 9 were determined using calibration curves prepared with synthetic standards. Kinetics of metabolite formation or parent depletion is shown in supplementary Fig. 5, Fig. 6 and kinetic parameters are described in supplementary Table […]
The rate and extent of metabolite formation in the presence of mouse liver microsomes was […]
than in the presence of HLM.

[3] = 3-day rat toxicity (tolerability) study of compound 12; type: in vivo; conditions: for Summary of clinical signs and effects: NOEL = no observed effect level
Description: Two groups of male rats (n=3, Han Wistar) were obtained from Charles River Laboratories, UK. Animals were group housed for ~1 week before the initiation of dosing. On the first day of dosing, rats were ~11 weeks of age and weighed 250–300 g and received compound 12 via oral gavage at dose levels of 75 or 150 mg kg^−1 for three consecutive days and necropsied 24 h after the final dose. Vehicle: 1% pluronic F127; dose volume: 10 ml kg^−1. In addition to regular monitoring of the animals' general condition, toxicokinetic profiles were obtained on day 1 and clinical chemistry, haematology and histopathology were assessed from all animals on day 4. Female animals were not included in the study as sex differences in either exposure or tolerability were not expected and control animals were excluded from this preliminary study design to reduce animal usage. Body weights were collected during acclimation and before each dose. Food and water consumption were available ad libitum but not recorded.
Toxicokinetic profiles were obtained on day 1 from all animals (time points: 0.5, 1, 2, 4, 6 and 24 h post dose) via microsample tail prick (32 μl blood) and were analysed using a qualified analytical procedure. Clinical pathology blood samples were taken at necropsy (24 h after third and final dose) from all animals, and analysed following a routine toxicological parameter list. Urinalysis was not performed.

Pf 3D7A = assay: in vitro parasite reduction ratio (PRR) assay; conditions: after 48 h of exposure, 10 times IC50
Pf = assay: Predicted human efficacy (parasite load reduction); parameters: species or system Plasmodium falciparum
Description: The predicted human exposure after a single dose of 260 mg is likely to sustain the maximum kill rate observed in the Pf/SCID model for 4–6 days to achieve >3-log reduction in parasitemia (Supplementary Note 6, Supplementary Figs 12 and 13, and Supplementary Table 12). A patient with clinical symptoms of uncomplicated malaria may have 1–2% parasitemia in blood, which is equivalent to 11–12 log parasites in total, assuming 13 log erythrocytes in human blood. At a dose of 260 mg, compound 12 is predicted to maintain a constant kill rate over two life cycles (96 h) of the parasite to yield a 3 to 4-log reduction in the total parasite load. Therefore, a single-dose treatment with~500 mg might result in >8-log reduction in the parasite load. In a combination-based malaria therapy that is clinically practiced, an additive or synergistic effect of the partner drug with compound 12 is predicted to cure patients following a single-dose treatment.
Prediction of human PK profile. The predicted human CL and Vss estimates could be used for predicting human PK with a one compartment distribution. However, rat and dog IVPK profiles indicated a two compartment distribution. Parameters for the two compartment distribution in human were predicted by Wajima transformation8 of rat and dog IVPK […]
CLd, Vt and Vc estimates, assuming similar Ka (0.3/h) and F (0.7) as observed in rats (supplementary Fig. 12 ).
Predicted human PK parameters are shown in supplementary Table 12. Human CL estimates predicted by the FCIM method and IVIVE (3.8 ml/min/kg) were identical. The […]
Human efficacy was predicted after treatment of 70 kg adult with a single 260 mg dose, assuming 2% parasitemia at the onset of treatment and assuming one compartment distribution of 12 in humans (supplementary Fig. 13). Similar efficacy was predicted if 12 was distributed in two compartments.

SMILES: Cc1cc(Nc2ncc(N3CCN(C)CC3)c(N3CCCC3)n2)ccn1 [compound 2]
- solubility (Solubility): 830 µM (≈ 293 µg/mL)

SMILES: Cc1nc(Nc2ncc(N3CCN(C)[C@H](C)C3)c(Nc3cc(C)n(C)n3)n2)cc(C2CC2)c1F [compound 12, (R)-N2-(4-cyclopropyl-5-fluoro-6-methylpyridin-2-yl)-N4-(1,5-dimethyl-1H-pyrazol-3-yl)-5-(3,4-dimethylpiperazin-1-yl)pyrimidine-2,4-diamine]
- Plasma protein binding (% free) ([1]; Guinea pig): 5.5 % free
- fraction unbound ([1]; guinea pig, plasma): 0.055
- fraction unbound [2]: 0.04
- IC50 (Dd2): 16.1 ± 1 nM
- IC50 (Dd2-6R F2 D8): 69.6 nM
- IC50 (PfATP4 Cpd 2): 8.1 nM
- IC50 (Dd2 DHODH DSM265): 6.5 nM
- IC50 (Dd2 PfATP4 NITD609): 6.8 nM
- Km (in vitro; human, HLM): 22.5 µM
- Km (in vitro; mouse, MLM): 78.3 µM
- A—plasma Cmax free ([3]; 75 mg kg^−1 per day oral): 0.11 µM
- Safety margin (A/B)-free Cmax ([3]; 75 mg kg^−1 per day oral): 12.6
- Summary of clinical signs and effects ([3]; 75 mg kg^−1 per day oral): NOEL
- A—plasma Cmax free ([3]; 150 mg kg^−1 per day oral): 0.13 µM
- Safety margin (A/B)-free Cmax ([3]; 150 mg kg^−1 per day oral): 15
- Summary of clinical signs and effects ([3]; 150 mg kg^−1 per day oral): NOEL
- clinical pathology and histopathology findings ([3]; 75 or 150 mg kg^−1 oral, three days): no findings considered related to treatment
- log kill in PRR assay (Pf 3D7A): > 4 log
- predicted reduction in the total parasite load (Pf; 260 mg, two life cycles (96 h)): 3 to 4 log
- predicted reduction in parasitemia (Pf; single dose of 260 mg, 4–6 days): > 3 log
- predicted reduction in the parasite load (Pf; single dose ~500 mg): > 8 log
